Source: paper PMC7950324, “A general method for quantifying ligand binding to unmodified receptors using Gaussia luciferase” (The Journal of Biological Chemistry, 2021)
Where two headings read alike, the source gives them in different places.

Key:
ɑ1AAR [1] = biological target: T1, ɑ1AAR (Homo sapiens, UniProt P35348); assay: α1AAR ligand screening, plasma membrane–ligand BRET (α1AAR with GLuc–PM); details: for inhibition at 10 µM: 20 min
ɑ1AAR [2] = biological target: T1, ɑ1AAR; assay: PM–ligand BRET equilibrium binding, α1AAR with GLuc–PM; design: expressed in transfected cells; host or cells: HEK 293T
GLuc–ɑ1AAR = biological target: T2, GLuc–ɑ1AAR (Homo sapiens, UniProt P35348); assay: Receptor–ligand BRET equilibrium binding, GLuc–α1AAR in HEK 293T cells
T2 construct: Gaussia luciferase signal peptide (N); […]; expressed in transfected cells; host or cells: HEK 293T
T2 sequence (P35348 whole entry): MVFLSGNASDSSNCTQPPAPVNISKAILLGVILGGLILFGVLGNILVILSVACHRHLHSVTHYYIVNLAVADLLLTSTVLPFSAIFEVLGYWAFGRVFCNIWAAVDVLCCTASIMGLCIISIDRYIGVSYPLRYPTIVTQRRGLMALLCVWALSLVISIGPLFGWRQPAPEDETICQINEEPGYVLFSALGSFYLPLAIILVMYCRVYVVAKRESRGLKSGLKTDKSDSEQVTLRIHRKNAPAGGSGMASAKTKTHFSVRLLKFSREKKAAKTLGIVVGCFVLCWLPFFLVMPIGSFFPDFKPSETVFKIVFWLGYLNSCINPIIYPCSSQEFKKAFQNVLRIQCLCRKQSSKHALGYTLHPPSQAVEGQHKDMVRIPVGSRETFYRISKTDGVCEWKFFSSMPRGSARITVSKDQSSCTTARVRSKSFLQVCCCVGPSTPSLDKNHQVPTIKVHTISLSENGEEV

AT1R [3] = biological target: T3, AT1R (Rattus norvegicus, UniProt P25095); assay: PM–ligand BRET equilibrium binding, untagged AT1R with GLuc–PM; details: two site competitive fit
T3 construct: expressed in transfected cells; host or cells: HEK 293T
T3 sequence (P25095 1-359): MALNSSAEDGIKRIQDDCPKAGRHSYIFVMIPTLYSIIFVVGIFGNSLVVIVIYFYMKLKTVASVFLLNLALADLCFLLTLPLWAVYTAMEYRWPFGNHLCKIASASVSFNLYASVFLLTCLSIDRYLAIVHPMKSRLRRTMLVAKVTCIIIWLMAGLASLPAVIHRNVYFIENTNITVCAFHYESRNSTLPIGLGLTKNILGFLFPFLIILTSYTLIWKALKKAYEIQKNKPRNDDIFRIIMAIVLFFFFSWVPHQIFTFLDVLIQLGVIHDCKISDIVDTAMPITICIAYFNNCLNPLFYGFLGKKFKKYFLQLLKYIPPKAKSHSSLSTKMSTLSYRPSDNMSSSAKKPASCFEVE

AT1R [4] = biological target: T3, AT1R; assay: Kinetic PM–ligand BRET, AT1R with GLuc–PM; format: binding
GLuc–AT1R [5] = biological target: T4, GLuc–AT1R (Rattus norvegicus, UniProt P25095); assay: Kinetic receptor–ligand BRET, GLuc–AT1R; format: binding
T4 construct: Gaussia luciferase signal peptide (N); expressed in transfected cells; host or cells: HEK 293T
T4 sequence (P25095 1-359): T3 sequence (P25095 1-359)

NanoLuc–AT1R = biological target: T5, NanoLuc–AT1R (Rattus norvegicus, UniProt P25095); assay: Receptor–ligand BRET equilibrium binding, NanoLuc–AT1R in HEK 293T cells; details: 1 μM TAMRA–AngII, two site competitive fit, 2 h room temperature
T5 construct: secretion signal peptide of interleukin-6 (N); expressed in transfected cells; host or cells: HEK 293T
T5 sequence (P25095 1-359): T3 sequence (P25095 1-359)

GLuc–AT1R [6] = biological target: T4, GLuc–AT1R; assay: Receptor–ligand BRET equilibrium binding, GLuc–AT1R in HEK 293T cells; details: 1 μM TAMRA–AngII, two site competitive fit, 2 h room temperature
AT1R [7] = biological target: T3, AT1R; assay: PM–ligand BRET equilibrium binding, untagged AT1R with NanoLuc–PM; details: 1 μM TAMRA–AngII, two site competitive fit
[8] = biological target: AT1 angiotensin receptor (AT1R), untagged, rat (rat) (UniProt P25095); assay: FRET or BRET; PM‒ligand (bystander) BRET with GLuc‒PM, equilibrium competition: live HEK 293T cells with unmodified receptor, GLuc‒PM and DN-Dyn; a fixed fluorescent ligand (1 μM TAMRA‒AngII, 300 ng/ml biotinylated EGF on Alexa Fluor 488 streptavidin, or 100 μg/ml Alexa Fluor 488 human transferrin) and increasing unlabeled ligand, 2 h at room temperature
[9] = biological target: AT2 angiotensin receptor (AT2R), untagged, rat (rat) (UniProt P35351); assay: as above
Chain of AT2 angiotensin receptor (AT2R), untagged, rat (rat) (P35351 whole entry): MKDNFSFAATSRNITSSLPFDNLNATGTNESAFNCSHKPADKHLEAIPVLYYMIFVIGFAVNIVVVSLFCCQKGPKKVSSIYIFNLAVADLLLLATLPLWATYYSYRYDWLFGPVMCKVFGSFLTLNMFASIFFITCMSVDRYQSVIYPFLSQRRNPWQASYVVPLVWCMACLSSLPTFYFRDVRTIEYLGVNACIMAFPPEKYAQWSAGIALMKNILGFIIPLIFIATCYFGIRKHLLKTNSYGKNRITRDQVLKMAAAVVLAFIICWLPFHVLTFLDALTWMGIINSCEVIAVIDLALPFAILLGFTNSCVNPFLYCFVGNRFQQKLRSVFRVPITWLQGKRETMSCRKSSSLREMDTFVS

[10] = read-out: plasma membrane-ligand BRET decrease (%) Replicate1
[11] = read-out: plasma membrane-ligand BRET decrease (%) Replicate2
[12] = 375 nM BODIPY FL–prazosin, one site competitive fit, PM–ligand BRET
[13] = 375 nM BODIPY FL–prazosin, one site competitive fit, receptor–ligand BRET

T1 sequence (P35348 whole entry): as the sequence (P35348 whole entry) above

Compound | inhibition at 10 µM (ɑ1AAR [1]; [10]) [%] | inhibition at 10 µM (ɑ1AAR [1]; [11]) [%] | further results
Cc1cc(C)c(CNC(=O)c2ccc(NC(=O)C3CC3)cc2)c(=O)[nH]1 [BCC0003661] | -7.67 | -9.71 | 
Cc1cc(C(=O)NCc2ccc(F)cc2)on1 [BCC0004615] | -12.9 | -13.9 | 
CC(NC(=O)C1CC1C)c1ccc(-n2cncn2)cc1 (stereo not shown) [BCC0008909] | 4.15 | -0.3 | 
O=C(/C=C/c1nc2ccccc2o1)N1CCC(c2c[nH]c3ccccc23)CC1 [BCC0010913, (E)-3-(1,3-Benzoxazol-2-yl)-1-[4-(1H-indol-3-yl)piperidin-1-yl]prop-2-en-1-one] |  |  | Ki (ɑ1AAR [2]; [12]): 1840 nM; Ki (GLuc–ɑ1AAR; [13]): 2750 nM
Cc1ccnc(SCc2nc3ccccn3c2Br)n1 [BCC0020406] | -10.3 | -12 | 
O=C(CN1CCN(CC(=O)Nc2cccc([N+](=O)[O-])c2)CC1)Nc1cccc([N+](=O)[O-])c1 [BCC0036095] | -1.4 | 3.14 | 
COc1ccc(C(=O)NCCN2CCN(C(=O)c3ccc(OC)c(OC)c3)CC2)cc1OC [BCC0048283] | 0.72 | 3.82 | 
CCCN1CCC(N2CCN(S(=O)(=O)c3ccc(C)cc3)CC2)CC1 [BCC0058402] | -0.92 | 2.58 | 
CCC(=O)c1ccc(OCCN2CCOCC2)cc1 [BCC0059938] | -1.24 | -1.63 | 
O=C(CN1CCC(n2nnc3cc(F)ccc32)CC1)N1CCc2ccccc2C1 [BCC0061678, 1-(3,4-Dihydro-1H-isoquinolin-2-yl)-2-[4-(5-fluorobenzotriazol-1-yl)piperidin-1-yl]ethanone] |  |  | Ki (ɑ1AAR [2]; [12]): 180 nM; Ki (GLuc–ɑ1AAR; [13]): 274 nM
CN1CCN(C(=O)c2ccc(-n3nc(C(F)(F)F)c4c3CCCC4)cc2)CC1 [BCC0063211] | 3.59 | 4.59 | 
C=CCOc1ccc2[nH]c(C)c(C(=O)OCC)c2c1 [BCC0065386] | 4.81 | 1.12 | 
O=C(c1noc2c1COc1ccccc1-2)N1CCN(c2cccc(Cl)c2)CC1 [BCC0066678] | -4.28 | -2.43 | 
CN1CCCCC1C#CC(O)(c1ccccc1)c1ccccc1 (stereo not shown) [BCC0068132] |  |  | plasma membrane-ligand BRET decrease (%) Replicate1 (ɑ1AAR [1]): -4,21%; plasma membrane-ligand BRET decrease (%) Replicate2 (ɑ1AAR [1]): -5,19%
COc1ccc(-c2nnc(SCC(=O)Nc3cc(C)cc(C)c3)[nH]2)cc1 [BCC0072526, N-(3,5-Dimethylphenyl)-2-[[5-(4-methoxyphenyl)-1H-1,2,4-triazol-3-yl]sulfanyl]acetamide] |  |  | Ki (ɑ1AAR [2]; [12]): 86.1 nM; Ki (GLuc–ɑ1AAR; [13]): 215 nM
CN(C)CCCNCc1ccc2c(c1)OCO2 [BCC0076253] | -1.24 | -0.43 | 
O=C(NCCN1CCN(c2ccccc2)CC1)Nc1ccc2c(c1)OCCO2 [BCC0079473, 1-(2,3-Dihydro-1,4-benzodioxin-6-yl)-3-[2-(4-phenylpiperazin-1-yl)ethyl]urea] |  |  | Ki (ɑ1AAR [2]; [12]): 122 nM; Ki (GLuc–ɑ1AAR; [13]): 248 nM
CSc1ccc(CNC2CN3CCC2CC3)cc1 (stereo not shown) [BCC0080607] | -0.99 | 2.8 | 
COc1ccccc1NS(=O)(=O)c1ccc2c(c1)SC(C)C(=O)N2 (stereo not shown) [BCC0083047] | -3.44 | -2.12 | 
FC(F)(F)c1cccc(OCCn2cncn2)c1 [BCC0089082] | 2.21 | 4.76 | 
O=C(CN1CCC(N2CCCCC2)CC1)N1CCC2(CC1)OCCO2 [BCC0092904] | -4.89 | -1.52 | 
O=C(Cn1nnc2ccccc21)N1CCC(n2c(=O)oc3ccccc32)CC1 [BCC0101075] | -4.37 | -10.8 | 
Cc1cc(S(=O)(=O)NCc2ccccc2)ccc1OCC(=O)N1CCN(C)CC1 [BCC0113627] | 1.05 | -3.63 | 
CC(C)(C)Nc1nnc(Sc2ncnc3sccc23)s1 [BCC0117056] | -11.6 | -0.3 | 
CS(=O)(=O)Nc1c(O)ccc2c1CCCC2C1=NCCN1 (stereo not shown) [Compound A61603, A61603, reference compound] | -74 | -76 | 
CC[C@H](C)[C@H](NC(=O)[C@@H]1CCCN1C(=O)[C@H](Cc1c[nH]cn1)NC(=O)[C@@H](NC(=O)[C@@H](NC(=O)[C@@H](NC(=O)[C@H](CCCNC(=N)N)NC(=O)CNC)C(C)C)[C@@H](C)CC)[C@@H](C)CC)C(=O)O [SII, [Sar^1,Ile^4,Ile^8]-angiotensin II] |  |  | IC50 (AT1R [3]; read-out: IC50_Hi, agonist binding, GLuc–PM (Fig. 2M)): 1280 nM
CCOc1nc2cccc(C(=O)O)c2n1Cc1ccc(-c2ccccc2-c2nnn[nH]2)cc1 [candesartan] |  |  | IC50 (AT1R [3]; 1 μM TAMRA–AngII, GLuc–PM, read-out: IC50_Hi): 1.24 nM; IC50 (AT1R [3]; 1 μM TAMRA–AngII, GLuc–PM, read-out: IC50_Lo): 248000 nM; koff (AT1R [4]): 0.000833 s⁻¹; kon (AT1R [4]): 278000 M⁻¹ s⁻¹; koff (GLuc–AT1R [5]): 0.00123 s⁻¹; kon (GLuc–AT1R [5]): 540000 M⁻¹ s⁻¹; IC50 (NanoLuc–AT1R; read-out: IC50_Hi): 0.52 nM; IC50 (NanoLuc–AT1R; read-out: IC50_Lo): 1 nM; IC50 (GLuc–AT1R [6]; read-out: IC50_Hi): 0.207 nM; IC50 (GLuc–AT1R [6]; read-out: IC50_Lo): 1.3 nM; IC50 (AT1R [7]; read-out: IC50_Hi): 1.29 nM; IC50 (AT1R [7]; read-out: IC50_Lo): 19.6 nM
COc1ccccc1OCCNCC(O)COc1cccc2[nH]c3ccccc3c12 (stereo not shown) [carvedilol, reference compound] |  |  | Ki (ɑ1AAR [2]): 43.8 nM; Ki (GLuc–ɑ1AAR): 62.7 nM
[Sar^1,Ile^4,Ile^8]-angiotensin II (SII) (peptide) |  |  | IC50 of the high-affinity site (IC50 Hi) [8]: 1280 nM
angiotensin II (AngII) (peptide) |  |  | IC50 [9]: 479 nM
